Experimental data as given in patent publication US7842324B2 (Senomyx, Inc., priority 2005, dated 2010).

Tests used:
[1] = tested on: tasters; assay: Reduced sugar soda syrup (strawberry soda) sensory evaluation; assay type: in vivo, human; settings: scale 1 to 10
Protocol: 1000.00 g of the ⅔ sugared syrup comprising compound 23 was formulated in the following manner. Compound 23 was diluted with maltodextrin (1:100) to make a sweetener concentrate composition for addition to the soda syrup formulation. An alternative method is to make a solution of amide compound in propylene glycol that can be added directly into the liquid soda syrup formulation. A 100 g batch of dry sweetener concentrate composition was produced by weighing 1.000 g of the enhancer and 99.0000 g of 10 D.E. maltodextrin. 50 g of the maltodextrin was placed on the bottom of a clean and dried mortar and the 1.0000 g of amide compound was added and slowly mixed into the maltodextrin. In a planetary mixer with a wire whip attachment (KITCHEN AIDE™ Mixer), the rest of the maltodextrin was added to the mixing bowl, and the contents of the mortar was placed into the mixer and the mixer was turned on to a slow speed (setting 3). A rubber spatula was used to remove the contents of the mortar and the contents were allowed to mix for an additional 10 minutes. A rubber spatula was used to scrap the walls and bottom of the bowl. The mixture was blended on low for another 15 minutes. The […] sweetener concentrate composition was stored in an air tight amber glass container. […]

[2] = tested on: tasters; assay: Reduced sugar frosted breakfast cereal sensory evaluation; assay type: in vivo, human; settings: for Avgage Sweet Intensity Score: scale 1 to 10
Protocol: A 100 gram sample of a solid sweetener concentrate composition was prepared from 1.000 g of compound 23 and 99.000 g of 10 D.E. maltodextrin. “DE” i.e. “[…]” is a measure of the degree of depolymerization of the corn starches used to manufacture maltodextrins. Fifty grams of the maltodextrin was placed on the bottom of a clean and dried mortar and the 1.000 gr of compound 23 was added to the maltodextrin and slowly ground and mixed into the maltodextrin. The remaining 50 grams of maltodextrin was added to a planetary mixer with a wire whip attachment (KITCHEN AIDE™ Mixer), then the contents of the mortar were placed into the mixer and the mixer was turned on to a slow speed (setting 3), and allowed to mix for 10 minutes. A rubber spatula was used to scrap the walls and bottom of the bowl, then the mixture was blended on low for another 15 minutes. The 100× diluted solid sweetener concentrate composition was stored in an air tight amber glass container. The contents were mixed in the glass container before taking out aliquots of the dry diluted sweet enhancer.
Using the KITCHEN AIDE™ Mixer with the wire whip attachment, the granulated sugar, powdered sugar, gum arabic, dextrin, and the 1:100 diluted sweetener concentrate composition were mixed at speed 3. Water and the HFCS were placed into a 1000 mL stainless steel cylinder and mixed using a LIGHTNIN™ Mixer at 500 to 650 rpms using a 2.5 inch (6.35 cm) impeller with three straight blades until the HFCS was dissolved (5 minutes). A vortex was created by positioning the impeller blades at a 30 to 45° angle. The dry/sugar/gum dry blend was added to the vortex very slowly and allowed to mix until the sugar dissolved and the gum rehydrated. An additional 10 minute mixing time was allowed after the last of the dry blend was added, to form the frosting. […]
Frosted corn flake cereal samples were evaluated using a rank rating design by tasters. […]

SMILES: CC(C)CNC(=O)C(C)(C)c1ccc(-c2cncc(C#N)c2)cc1 [Compound 23, 2-(4-(5-cyanopyridin-3-yl)phenyl)-N-isobutyl-2-methylpropanamide]
- Average Sweet Intensity Score ([1]; ⅔ sugared with HFCS strawberry soda + 1.0 ppm): 6.429
- Average Sweet Intensity Score ([1]; ⅔ sugared with HFCS strawberry soda + 1.3 ppm): 7.214
- sweetness compared with fully sugar frosted cornflake control ([2]; 9.6 ppm in frosting): almost as much sweetness as the fully sugar frosted cornflake control
- Avgage Sweet Intensity Score ([2]; ⅔ sugared frosted corn flakes + 6.6 ppm): 7.5
- Avgage Sweet Intensity Score ([2]; ⅔ sugared frosted corn flakes + 9.6 ppm): 7.81
